Reference: patent US20090158447A1, “TLR ligand and IL-1 Response-Injured Animal Model” (priority 2004, published 2009)

T1: IκB-ζ (mouse, UniProt Q9EST8 1-728, limits assumed)
T1 construct: also called MAIL; INAP
T1 sequence (looked up): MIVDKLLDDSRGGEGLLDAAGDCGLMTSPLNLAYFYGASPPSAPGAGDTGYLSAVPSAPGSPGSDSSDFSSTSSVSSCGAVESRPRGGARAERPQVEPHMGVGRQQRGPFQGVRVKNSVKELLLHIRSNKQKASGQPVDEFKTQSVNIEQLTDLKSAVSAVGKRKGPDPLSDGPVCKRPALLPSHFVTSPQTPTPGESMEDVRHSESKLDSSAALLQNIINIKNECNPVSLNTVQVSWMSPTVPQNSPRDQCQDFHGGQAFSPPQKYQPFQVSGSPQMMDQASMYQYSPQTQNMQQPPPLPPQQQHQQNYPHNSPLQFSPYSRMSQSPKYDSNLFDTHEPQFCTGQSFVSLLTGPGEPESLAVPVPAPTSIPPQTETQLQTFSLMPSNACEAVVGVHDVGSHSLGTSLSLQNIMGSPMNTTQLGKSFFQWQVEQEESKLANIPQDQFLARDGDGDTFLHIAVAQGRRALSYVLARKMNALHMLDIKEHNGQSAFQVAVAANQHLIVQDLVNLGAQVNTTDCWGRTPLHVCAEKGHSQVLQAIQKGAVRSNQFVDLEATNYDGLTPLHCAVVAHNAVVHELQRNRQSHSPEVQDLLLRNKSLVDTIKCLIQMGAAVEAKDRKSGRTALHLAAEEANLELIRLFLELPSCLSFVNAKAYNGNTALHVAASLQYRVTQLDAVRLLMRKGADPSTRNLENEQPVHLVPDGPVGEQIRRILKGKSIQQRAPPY

B1: RelB (other, mouse, UniProt Q04863 1-558, looked up)
chain: MPSRRAARESAPELGALGSSDLSSLSLTVSRTTDELEIIDEYIKENGFGLDGTQLSEMPRLVPRGPASLSSVTLGPAAPPPPATPSWSCTLGRLVSPGPCPRPYLVITEQPKQRGMRFRYECEGRSAGSILGESSTEASKTLPAIELRDCGGLREVEVTACLVWKDWPHRVHPHSLVGKDCTDGVCRVRLRPHVSPRHSFNNLGIQCVRKKEIEAAIERKIQLGIDPYNAGSLKNHQEVDMNVVRICFQASYRDQQGHLHRMDPILSEPVYDKKSTNTSELRICRINKESGPCTGGEELYLLCDKVQKEDISVVFSTASWEGRADFSQADVHRQIAIVFKTPPYEDLEISEPVTVNVFLQRLTDGVCSEPLPFTYLPRDHDSYGVDKKRKRGLPDVLGELSSSDPHGIESKRRKKKPVFLDHFLPGHSSGLFLPPSALQPADSDFFPASISLPGLEPPGGPDLLDDGFAYDPSAPTLFTMLDLLPPAPPLASAVVGSGGAGATVVESSGPEPLSLDSFAAPGPGDVGTASLVGSNMFPNQYREAAFGGGLLSPGPEAT
B2: RelA (other, mouse, UniProt Q04207 1-549, looked up)
chain: MDDLFPLIFPSEPAQASGPYVEIIEQPKQRGMRFRYKCEGRSAGSIPGERSTDTTKTHPTIKINGYTGPGTVRISLVTKDPPHRPHPHELVGKDCRDGYYEADLCPDRSIHSFQNLGIQCVKKRDLEQAISQRIQTNNNPFHVPIEEQRGDYDLNAVRLCFQVTVRDPAGRPLLLTPVLSHPIFDNRAPNTAELKICRVNRNSGSCLGGDEIFLLCDKVQKEDIEVYFTGPGWEARGSFSQADVHRQVAIVFRTPPYADPSLQAPVRVSMQLRRPSDRELSEPMEFQYLPDTDDRHRIEEKRKRTYETFKSIMKKSPFNGPTEPRPPTRRIAVPTRNSTSVPKPAPQPYTFPASLSTINFDEFSPMLLPSGQISNQALALAPSSAPVLAQTMVPSSAMVPLAQPPAPAPVLTPGPPQSLSAPVPKSTQAGEGTLSEALLHLQFDADEDLGALLGNSTDPGVFTDLASVDNSEFQQLLNQGVSMSHSTAEPMLMEYPEAITRLVTGSQRPPDPAPTPLGTSGLPNGLSGDEDFSSIADMDFSALLSQISS
notes: Immunoprecipitated with anti-RelA (Santa Cruz); also called NF-κB RelA
B3: c-Rel (other, mouse, UniProt P15307 2-587, looked up)
chain: ASSGYNPYVEIIEQPRQRGMRFRYKCEGRSAGSIPGERSTDNNRTYPSVQIMNYYGKGKIRITLVTKNDPYKPHPHDLVGKDCRDGYYEAEFGPERRPLFFQNLGIRCVKKKEVKGAIILRISAGINPFNVGEQQLLDIEDCDLNVVRCVFMFFLPDEDGNFTTALPPIVSNPIYDNRAPNTAELRICRVNKNCGSVRGGDEIFLLCDKVQKDDIEVRFVLNDWEARGVFSQADVHRQVAIVFKTPPYCKAILEPVTVKMQLRRPSDQEVSESMDFRYLPDEKDAYGNKSKKQKTTLIFQKLLQDCGHFTEKPRTAPLGSTGEGRFIKKESNLFSHGTVLPEMPRSSGVPGQAEPYYSSCGSISSGLPHHPPAIPSVAHQPTSWPPVTHPTSHPVSTNTLSTFSAGTLSSNSQGILPFLEGPGVSDLSASNSCLYNPDDLARMETPSMSPTDLYSISDVNMLSTRPLSVMAPSTDGMGDTDNPRLVSINLENPSCNARLGPRDLRQLHQMSPASLSAGTSSSSVFVSQSDAFDRSNFSCVDNGLMNEPGLSDDANNPTFVQSSHYSVNTLQSEQLSDPFTYGFFKI
notes: Immunoprecipitated with anti-c-Rel (Santa Cruz)
B4: p52 subunit (other, mouse, UniProt Q9WTK5 1-454, looked up)
chain: MDNCYDPGLDGIPEYDDFEFSPSIVEPKDPAPETADGPYLVIVEQPKQRGFRFRYGCEGPSHGGLPGASSEKGRKTYPTVKICNYEGPAKIEVDLVTHSDPPRAHAHSLVGKQCSELGVCAVSVGPKDMTAQFNNLGVLHVTKKNMMEIMIQKLQRQRLRSKPQGLTEAERRELEQEAKELKKVMDLSIVRLRFSAFLRASDGSFSLPLKPVISQPIHDSKSPGASNLKISRMDKTAGSVRGGDEVYLLCDKVQKDDIEVRFYEDDENGWQAFGDFSPTDVHKQYAIVFRTPPYHKMKIERPVTVFLQLKRKRGGDVSDSKQFTYYPLVEDKEEVQRKRRKALPTFSQPFGGGSHMGGGSGGSAGGYGGAGGGGSLGFFSSSLAYNPYQSGAAPMGCYPGGGGGAQMAGSRRDTDAGEGAEEPRTPPEAPQGEPQALDTLQRAREYNARLFGLA

The molecules below were run against T1, IκB-ζ (assay: co-immunoprecipitation from peritoneal macrophage lysates, immunoblot with α-IκB-ζ). Conditions: not given.
Source text: RAW 264.7 cells were transiently transfected with luciferase reporter constructs of either mouse IL-6 promoter or ELAM1 promoter together with either a control or the IκB-ζ expression plasmid. Luciferase activities were expressed as fold-increase over the background shown by lysates prepared from untransfected cells. Data are representative of three separate experiments. In all three experiments, cells were stimulated with the indicated concentrations of LPS. b. A certain amount of IκB-ζ expression vector was transiently introduced into untreated RAW 264.7 cells with the indicated amount of IL-6 reporter plasmid. Data are representative of three independent experiments. c. Reporter constructs of either a wild-type or mutant IL-6 promoter were transiently introduced into P19 embryonic canrinoma cells together with either a control or an IκB-ζ expression plasmid. Luciferase activities were normalized in each case of reporter constructs by dividing the increase rate of IκB-ζ-expressed cells over the background shown by lysates by that of mock-expressed cells. d. Chromatin from untreated (−) or LPS-treated (+) (1 μg ml⁻¹ for 3 hours) RAW 264.7 cells were used for ChIp with the indicated antibodies. Precipitated DNA for the IL-6 κB site (left), 3′ region of IL-6 gene (center), or ELAM1 promoter (right) was measured by PCR (ChIP). Data are representative of two independent experiments. e. Unstimulated or LPS-stimulated (10 ng ml⁻¹) peritoneal macrophages were immunoprecepitated with the indicated antibodies. The immunoprecipitated lysates were subsequently immunoblotted with α-IκB-ζ.
Peritoneal macrophages and MEFs were stimulated with the indicated ligands for the indicated periods. The cells were then lysed in a lysis buffer containing 1.0% Nonidet-P40, 150 mM NaCl, 20 mM Tris-Cl (pH 7.5), 5 mM EDTA and protein inhibitor (Roche). The cell lysates were dissolved by SDS-PAGE and transferred on a PVDF membrances. For immunoprecipitation, cell lysates were precleared with Protein G-Sepharose™ (Amersham Pharmacia Biotech) for 2 h and then incubated with Protein G-Sepharose™ containing 1.0 μg of the indicated antibodies for 12 h with stirring at 4° C. The immunoprecipitants were washed four times with lysis buffer, eluted by boiling with Laemnli sample buffer, and subjected to Western blotting using α-IκB-ζ, as described above.

Row | Molecule | binding result
1 | B1 | no binding
2 | B2 | no binding
3 | B3 | no binding
4 | B4 | no binding

The molecules below were run on peritoneal macrophages or lung-derived normal cells (assay: Northern blot analysis of IκB-ζ, Bcl-3 and IκB-α expression on TLR/IL-1R stimulation). Conditions: stimulation for 2 hours, FIG. 1a.
Assay type: cell-based, mouse
Procedure: Peritoneal macrophages and lung primary cells were stimulated with 100 ng ml^−1 BLP, 10 μg ml^−1 PGN, 30 ng ml^−1 MALP-2, 100 nM R-848, 3 μM CpG DNA, 10 ng ml^−1 IL-1β, 10 μg ml^−1 LPS, 100 ng ml^−1 flagellin, and 10 ng ml^−1 TNF-α for 2 hours. Total RNA (10 μg) was extracted and subjected to Northern blot analysis for investigating the expression of IκB-ζ, Bcl-3, IκB-α, and β-actin. b. MEFs from wild-type and MyD88-deficient mice were stimulated with 10 ng ml^−1 IL-1β and 10 μg ml^−1 LPS for the indicated periods. Total RNA (10 μg) was extracted and subjected to Northern blot analysis for investigating the expression of IκB-ζ, Cox-2, IP-10, and β-actin.
Whether IκB-ζ would be induced in response to other TLR ligands was examined based on the fact that stimulation with IL-1 or LPS induces IκB-ζ in macrophage cell lines and fibroblasts, and that IL-1R and the receptor for LPS, TLR4, share the intracellular signaling pathways. […] On the other hand, other IκB family members, IκB-α and Bcl-3, were induced in response to TNF-αas well as a TLR ligand and IL-1. Taken together, unlike IκB-α and Bcl-3, the IκB-ζ induction is specifically detected on the TLR/IL-1R stimulation.

Row | Molecule | IκB-ζ mRNA induction | Bcl-3 induction | IκB-α induction
5 | CCOCc1nc2c(N)nc3ccccc3c2n1CC(C)(C)O [R848] | strongly induced | – | –
6 | IL-1: Interleukin-1; recombinant IL-1β obtained from Genzyme | strongly induced | induced | induced
7 | MALP-2 | strongly induced | – | –
8 | TNF-α | no induction was observed | induced | induced
9 | flagellin | strongly induced | – | –
10 | peptidoglycan [PGN] | strongly induced | – | –
